Experimental data reported in patent publication US6737383B1, “Herbicidal oxadiazolidines” (priority 1999, dated 2004).

Key:
wild oat = assay: Test B pre/postemergence wild oat; assay type: in vivo, Avena fatua
How it was run: (§1)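 Herbicidal effect was estimated by eye on a ten-point control scale after plants spent twelve to sixteen days in a greenhouse following soil or foliar treatment. Foliar sprays targeted plants at one to four leaves; all doses were formulated in a non-phytotoxic solvent with surfactant.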

rape = assay: Test B pre/postemergence rape; assay type: in vivo, Brassica napus
How it was run: as §1

wheat = assay: Test B pre/postemergence wheat; assay type: in vivo, Triticum aestivum
How it was run: as §1

bedstraw = assay: Test B pre/postemergence bedstraw; assay type: in vivo, Galium aparine
How it was run: as §1

surinam grass = assay: Test B pre/postemergence surinam grass; assay type: in vivo, Brachiaria decumbens
How it was run: as §1

velvetleaf = assay: Test B pre/postemergence velvetleaf; assay type: in vivo, Abutilon theophrasti
How it was run: as §1

purple nutsedge = assay: Test B pre/postemergence purple nutsedge; assay type: in vivo, Cyperus rotundus
How it was run: as §1

pigweed = assay: Test B pre/postemergence pigweed; assay type: in vivo, Amaranthus retroflexus
How it was run: as §1

morningglory = assay: Test B pre/postemergence morningglory; assay type: in vivo, Ipomoea hederacea
How it was run: as §1

corn = assay: Test B pre/postemergence corn; assay type: in vivo, Zea mays
How it was run: as §1

soybean = assay: Test B pre/postemergence soybean; assay type: in vivo, Glycine max
How it was run: as §1

cocklebur = assay: Test B pre/postemergence cocklebur; assay type: in vivo, Xanthium strumarium
How it was run: as §1

blackgrass = assay: Test B pre/postemergence blackgrass; assay type: in vivo, Alopecurus myosuroides
How it was run: as §1

giant foxtail = assay: Test B pre/postemergence giant foxtail; assay type: in vivo, Setaria faberii
How it was run: as §1

crabgrass = assay: Test B pre/postemergence crabgrass; assay type: in vivo, Digitaria sanguinalis
How it was run: as §1

[1] = Preemergence, Rate 31 g/ha, visual rating, scale 0 to 10 (0 no effect, 10 complete control)
[2] = Preemergence, Rate 62 g/ha, scale of 0 to 10 where 0 is no effect and 10 is complete control
[3] = Preemergence, Rate 250 g/ha, scale of 0 to 10 where 0 is no effect and 10 is complete control
[4] = Preemergence, Rate 500 g/ha, scale of 0 to 10 where 0 is no effect and 10 is complete control
[5] = Rate 62 g/ha, Postemergence, scale of 0 to 10 where 0 is no effect and 10 is complete control
[6] = Rate 125 g/ha, Postemergence, scale 0 to 10
[7] = Rate 125 g/ha, Preemergence, scale of 0 to 10 where 0 is no effect and 10 is complete control
[8] = Rate 500 g/ha, Postemergence, scale 0 to 10, 0 no effect, 10 complete control
[9] = Rate 31 g/ha, Postemergence, scale 0 to 10

Structure (SMILES): CC(C)N(C(=O)n1oc(=O)n(N(C)C)c1=O)c1ccccc1 [Compound 225]
- Wild oats plant response rating (wild oat; [1]): 0
- Wild oats plant response rating (wild oat; [2]): 4
- Wild oats plant response rating (wild oat; [3]): 10
- Plant response rating, Wild oats (wild oat; [4]): 10
- Wild oats plant response rating (wild oat; [5]): 0
- Wild oats plant response rating (wild oat; [6]): 2
- Wild oats plant response rating (wild oat; [7]): 7
- Plant response rating (0 to 10; 0 is no effect, 10 is complete control), Wild oats (wild oat; Rate 250 g/ha, Postemergence): 3
- Wild oats plant response rating (wild oat; [8]): 2
- Rape plant response rating (rape; [1]): 0
- Rape plant response rating (rape; [2]): 0
- Rape plant response rating (rape; [3]): 0
- Plant response rating, Rape (rape; [4]): 6
- Rape plant response rating (rape; [9]): 0
- Rape plant response rating (rape; [5]): 0
- Rape plant response rating (rape; [6]): 0
- Rape plant response rating (rape; [7]): 0
- Plant response rating (0 to 10; 0 is no effect, 10 is complete control), Rape (rape; Rate 250 g/ha, Postemergence): 0
- Rape plant response rating (rape; [8]): 2
- Wheat plant response rating (wheat; [1]): 0
- Wheat plant response rating (wheat; [2]): 5
- Wheat plant response rating (wheat; [3]): 8
- Plant response rating, Wheat (wheat; [4]): 8
- Wheat plant response rating (wheat; [5]): 3
- Wheat plant response rating (wheat; [6]): 6
- Wheat plant response rating (wheat; [7]): 6
- Plant response rating (0 to 10; 0 is no effect, 10 is complete control), Wheat (wheat; Rate 250 g/ha, Postemergence): 7
- Wheat plant response rating (wheat; [8]): 8
- Bedstraw plant response rating (bedstraw; [2]): 0
- Bedstraw plant response rating (bedstraw; [3]): 0
- Plant response rating, Bedstraw (bedstraw; [4]): 2
- Bedstraw plant response rating (bedstraw; [5]): 0
- Bedstraw plant response rating (bedstraw; [6]): 0
- Bedstraw plant response rating (bedstraw; [7]): 0
- Plant response rating (0 to 10; 0 is no effect, 10 is complete control), Bedstraw (bedstraw; Rate 250 g/ha, Postemergence): 0
- Bedstraw plant response rating (bedstraw; [8]): 0
- B. signalgrass plant response rating (surinam grass; [1]): 0
- B. signalgrass plant response rating (surinam grass; [2]): 1
- B. signalgrass plant response rating (surinam grass; Preemergence, Rate 250 g/ha, scale 0 to 10, 0 is no effect, 10 is complete control): 7
- Plant response rating, B. signalgrass (surinam grass; [4]): 7
- B. signalgrass plant response rating (surinam grass; [9]): 0
- B. signalgrass plant response rating (surinam grass; [5]): 2
- B. signalgrass plant response rating (surinam grass; Rate 125 g/ha, Postemergence, scale 0 (no effect) to 10 (complete control)): 5
- B. signalgrass plant response rating (surinam grass; [7]): 7
- Plant response rating (0 to 10; 0 is no effect, 10 is complete control), B. signalgrass (surinam grass; Rate 250 g/ha, Postemergence): 5
- B. signalgrass plant response rating (surinam grass; [8]): 9
- Velvetleaf plant response rating (velvetleaf; [1]): 0
- Velvetleaf plant response rating (velvetleaf; [2]): 4
- Velvetleaf plant response rating (velvetleaf; [3]): 6
- Plant response rating, Velvetleaf (velvetleaf; [4]): 7
- Velvetleaf plant response rating (velvetleaf; [5]): 0
- Velvetleaf plant response rating (velvetleaf; [6]): 0
- Velvetleaf plant response rating (velvetleaf; [7]): 5
- Plant response rating (0 to 10; 0 is no effect, 10 is complete control), Velvetleaf (velvetleaf; Rate 250 g/ha, Postemergence): 0
- Velvetleaf plant response rating (velvetleaf; [8]): 3
- Nutsedge plant response rating (purple nutsedge; [1]): 0
- Nutsedge plant response rating (purple nutsedge; [2]): 7
- Nutsedge plant response rating (purple nutsedge; [3]): 8
- Plant response rating, Nutsedge (purple nutsedge; [4]): 10
- Nutsedge plant response rating (purple nutsedge; [9]): 0
- Nutsedge plant response rating (purple nutsedge; [5]): 0
- Nutsedge plant response rating (purple nutsedge; [6]): 0
- Nutsedge plant response rating (purple nutsedge; [7]): 7
- Plant response rating (0 to 10; 0 is no effect, 10 is complete control), Nutsedge (purple nutsedge; Rate 250 g/ha, Postemergence): 0
- Nutsedge plant response rating (purple nutsedge; [8]): 2
- Redroot pigweed plant response rating (pigweed; [1]): 6
- Redroot pigweed plant response rating (pigweed; [2]): 6
- Redroot pigweed plant response rating (pigweed; [3]): 10
- Plant response rating, Redroot pigweed (pigweed; [4]): 10
- Redroot pigweed plant response rating (pigweed; [9]): 0
- Redroot pigweed plant response rating (pigweed; [5]): 0
- Redroot pigweed plant response rating (pigweed; [6]): 0
- Redroot pigweed plant response rating (pigweed; [7]): 7
- Plant response rating (0 to 10; 0 is no effect, 10 is complete control), Redroot pigweed (pigweed; Rate 250 g/ha, Postemergence): 0
- Redroot pigweed plant response rating (pigweed; [8]): 2
- Morningglory plant response rating (morningglory; [1]): 0
- Morningglory plant response rating (morningglory; [2]): 0
- Morningglory plant response rating (morningglory; [3]): 4
- Plant response rating, Morningglory (morningglory; [4]): 8
- Morningglory plant response rating (morningglory; [9]): 2
- Morningglory plant response rating (morningglory; [5]): 2
- Morningglory plant response rating (morningglory; [6]): 3
- Morningglory plant response rating (morningglory; [7]): 4
- Plant response rating (0 to 10; 0 is no effect, 10 is complete control), Morningglory (morningglory; Rate 250 g/ha, Postemergence): 6
- Morningglory plant response rating (morningglory; [8]): 6
- Corn plant response rating (corn; [1]): 0
- Corn plant response rating (corn; [2]): 0
- Corn plant response rating (corn; [3]): 4
- Plant response rating, Corn (corn; [4]): 6
- Corn plant response rating (corn; [9]): 0
- Corn plant response rating (corn; [5]): 0
- Corn plant response rating (corn; [6]): 2
- Corn plant response rating (corn; [7]): 3
- Plant response rating (0 to 10; 0 is no effect, 10 is complete control), Corn (corn; Rate 250 g/ha, Postemergence): 2
- Corn plant response rating (corn; [8]): 6
- Soybean plant response rating (soybean; [1]): 0
- Soybean plant response rating (soybean; [2]): 0
- Soybean plant response rating (soybean; [3]): 3
- Plant response rating, Soybean (soybean; [4]): 6
- Soybean plant response rating (soybean; [5]): 2
- Soybean plant response rating (soybean; [6]): 3
- Soybean plant response rating (soybean; [7]): 2
- Plant response rating (0 to 10; 0 is no effect, 10 is complete control), Soybean (soybean; Rate 250 g/ha, Postemergence): 5
- Soybean plant response rating (soybean; [8]): 4
- Cocklebur plant response rating (cocklebur; [1]): 0
- Cocklebur plant response rating (cocklebur; [2]): 0
- Cocklebur plant response rating (cocklebur; [3]): 2
- Plant response rating, Cocklebur (cocklebur; [4]): 2
- Cocklebur plant response rating (cocklebur; [9]): 0
- Cocklebur plant response rating (cocklebur; [5]): 0
- Cocklebur plant response rating (cocklebur; [6]): 0
- Cocklebur plant response rating (cocklebur; [7]): 2
- Plant response rating (0 to 10; 0 is no effect, 10 is complete control), Cocklebur (cocklebur; Rate 250 g/ha, Postemergence): 0
- Cocklebur plant response rating (cocklebur; [8]): 0
- Blackgrass plant response rating (blackgrass; [1]): 0
- Blackgrass plant response rating (blackgrass; [2]): 2
- Blackgrass plant response rating (blackgrass; [3]): 10
- Plant response rating, Blackgrass (blackgrass; [4]): 10
- Blackgrass plant response rating (blackgrass; [9]): 0
- Blackgrass plant response rating (blackgrass; [5]): 6
- Blackgrass plant response rating (blackgrass; [6]): 9
- Blackgrass plant response rating (blackgrass; [7]): 10
- Plant response rating (0 to 10; 0 is no effect, 10 is complete control), Blackgrass (blackgrass; Rate 250 g/ha, Postemergence): 9
- Blackgrass plant response rating (blackgrass; [8]): 8
- Giant foxtail plant response rating (giant foxtail; [1]): 8
- Giant foxtail plant response rating (giant foxtail; [2]): 8
- Giant foxtail plant response rating (giant foxtail; [3]): 10
- Plant response rating, Giant foxtail (giant foxtail; [4]): 10
- Giant foxtail plant response rating (giant foxtail; [9]): 0
- Giant foxtail plant response rating (giant foxtail; [5]): 8
- Giant foxtail plant response rating (giant foxtail; [6]): 8
- Giant foxtail plant response rating (giant foxtail; [7]): 10
- Plant response rating (0 to 10; 0 is no effect, 10 is complete control), Giant foxtail (giant foxtail; Rate 250 g/ha, Postemergence): 8
- Giant foxtail plant response rating (giant foxtail; [8]): 9
- Crabgrass plant response rating (crabgrass; [1]): 2
- Crabgrass plant response rating (crabgrass; [2]): 9
- Crabgrass plant response rating (crabgrass; [3]): 10
- Plant response rating, Crabgrass (crabgrass; [4]): 10
- Crabgrass plant response rating (crabgrass; [9]): 0
- Crabgrass plant response rating (crabgrass; [5]): 5
- Crabgrass plant response rating (crabgrass; [6]): 8
- Crabgrass plant response rating (crabgrass; [7]): 10
- Crabgrass plant response rating (crabgrass; [8]): 8
